Source: patent publication US11547101B2, “Non-human animals having a disruption in a C9ORF72 locus” (Regeneron Pharmaceuticals, Inc., priority 2015, dated 2023)

What was measured:
C9orf72−/− motor neurons = experiment: Oxidative stress (ROS, CellROX Green) of cultured C9orf72−/− motor neurons exposed to BMAA; assay type: cell-based, mouse; details: 100 mM BMAA, measured at days 1 and 7, FIG. 7
Method: In another experiment, motor neurons from C9orfF72^−/− mice were cultured as described above (see also FIG. 7) and treated with antisense oligonucleotides that selectively target sense strand repeat-containing RNAs and reduce sense-oriented RNA foci without affecting overall C9orf72 expression. Treatment was followed by addition of 100 mM BMAA. Survival and oxidative stress of cultured motor neurons were measured at days 1 and 7. Briefly, oxidative stress of plated embryonic stem cell-derived motor neurons (described above) was assessed by measuring the Reactive Oxygen Species (ROS) levels in the cells using Life Technologies' CellROX Oxidative Stress Green reagent at a final concentration of 5 μM and incubating for 30 minutes at 37° C. After incubation, cells were washed three times with PBS and fluorescence was measured using a standard microplate fluorometry.

C9orf72−/− mice = experiment: ALS-like phenotype in aged C9orf72−/− mice given weekly i.p. BMAA (body weight, motor scores, rotarod, open field, catwalk); assay type: in vivo, mouse; details: 32-week old C9orf72−/− mice, BMAA 500 mg/kg weekly i.p. for six weeks; FIGS. 6A-6E
Method: In another experiment, aged (i.e., 32-week old) wild type and C9orf72^−/− mice were administered weekly i.p. injections of BMAA (500 mg/kg) or PBS (control) for six weeks. Body weight measurements were recorded each week up to 38 weeks starting at day zero (i.e., 32 weeks). Analysis of motor impairment via rotarod, open field locomotor, and catwalk testing (as described above) were also recorded at the start of the experiment (week 0, […]) and every other week up to 38 weeks. Table 6 sets forth the scoring methodology related to motor impairment, tremor and rigidity of animals during testing.

wild type mice = experiment: ALS-like phenotype in wild type mice given weekly i.p. BMAA (body weight, rotarod, open field, catwalk); assay type: in vivo, mouse; details: BMAA 500 mg/kg weekly i.p. for six weeks, FIGS. 5A-5D
Method: In another experiment, wild type mice were administered weekly i.p. injections of BMAA (500 mg/kg) or PBS (control) for six weeks starting at week 1 (FIG. 5A, top). Body weight measurements were recorded each week up to 6 weeks, week 14 and week 18. Analysis of motor impairment via rotarod, open field locomotor, and catwalk testing (as described above) were recorded at the start of the experiment (week 0, 10-weeks old), every other week up to 6 weeks, week 14 and week 18.

[1] = system: cultured wild type motor neurons; experiment: Survival of cultured embryonic stem cell-derived wild type motor neurons treated with BMAA (cell counts, trypan blue); assay type: cell-based, mouse; details: wild type motor neurons in ESMN with BMAA at 0.1-100 μM; FIG. 4
Method: Briefly, mouse embryonic stem cells are cultured and differentiated into motor neurons, during an eight-day period. The first day, previously frozen mouse embryonic stem cells are thawed and added to a 15 mL falcon tube with five mL of embryonic stem cell medium (ES medium: DMEM with 15% FBS, 1% pen/strep., 1% glutamine, 1% non-essential amino acids, 1% nucleosides, 0.1% β-mercaptoethanol, 1% sodium-pyruvate, and LIF at 10000 unit/mL), The tube is then centrifuged for five minutes at 800 rpm. The supernatant is aspirated and the cells suspended in 10 mL of ES medium. The cells are then plated on a T75 flask that is coated with 10 mL of 0.1% gelatin and incubated for 30 minutes at 37° C. to facilitate attachment to the flask bottom. The cells are then incubated overnight. The following day the medium exchanged with fresh medium for survival.
The following day medium is aspirated from the flask. The flask is washed with 10 mL of PBS, and then 5 mL of trypsin is added to detach the cells from the bottom of the flask. The cells are incubated for five minutes at 37° C. Detachment is confirmed by checking the flask under a microscope. […]
After three days embryoid bodies (EB) that form are dissociated. […] The cells are then counted using a Countess automatic cell counter (Life Technologies) and 0.5 to 1 million cells are plated with 2 mL ESMN medium per well in each six well plate. […]

CNC[C@H](N)C(=O)O [BMAA, β-Methylamino-L-alanine]
oxidative stress (Reactive Oxygen Species levels) (C9orf72−/− motor neurons): increased oxidative stress | effect on ALS-like motor phenotype (C9orf72−/− mice): mildly exacerbates | effect on increased inactivity and gait abnormalities (C9orf72−/− mice): does not affect | induction of ALS-like phenotype (wild type mice): did not induce an ALS-like phenotype | survival of cultured motor neurons (percentage of live neurons to control) [1]: kills cultured wild type motor neurons in a dose-dependent manner
